Assay results published in US8071355B2, “Polyhydroxyalkanoate production by coenzyme A-dependent aldehyde dehydrogenase pathways” (Metabolix, Inc., priority 2002, dated 2011).

Test system: E. coli strain MBX1335
Details: for average OD-600 reached: E. coli MBX1335, 10 g/L in medium, cultures allowed to continue to grow; for inhibition of growth rate: E. coli MBX1335, minimal glucose medium, 2, 5 and 10 g/L, triplicate, FIG. 2
Method: MBX1335 was grown overnight in LB medium supplemented with 25 μg/mL chloramphenicol. […] The base medium in these 3-mL cultures contained, per liter: 5 g glucose; 1 mmol MgSO4; 10 mg thiamine; 25.5 mmol Na2HPO4; 33.3 mmol K2HPO4; 27.2 mmol KH2PO4; 2.78 mg FeSO4.7H2O; 1.98 mg MnCl2.4H2O; 2.81 mg CoSO4.7H2O; 0.17 mg CuCl2.2H2O; 1.67 mg CaCl2.2H2O; 0.29 mg ZnSO4.7H2O; 0.1 g casein hydrolysate; and 25 μg chloramphenicol.

| Compound | average OD-600 reached | inhibition of growth rate |
| --- | --- | --- |
| 1-propanol | 3.8 | propionate inhibits the rate of growth substantially more than 1-propanol |
| CCC(=O)[O-].[Na+] [propionate, sodium propionate] | 5.0 | propionate inhibits the rate of growth substantially more than 1-propanol |
